Results taken from article PMC7966987, “Insights into the catalytic properties of the mitochondrial rhomboid protease PARL” (The Journal of Biological Chemistry, 2021).
“And” between values parts separate entries of the source, which are not always exact repeats. Identical values can stand only once. “Also recorded” adds a separate entry of the source.

Target: T1, PARLΔ77 (Homo sapiens, UniProt Q9H300)
T1 construct: GFP-hexahistidine (behind a TEV cleavage site) (C, cleaved yes); made in house; host or cells: Pichia pastoris
T1 sequence (Q9H300 78-379): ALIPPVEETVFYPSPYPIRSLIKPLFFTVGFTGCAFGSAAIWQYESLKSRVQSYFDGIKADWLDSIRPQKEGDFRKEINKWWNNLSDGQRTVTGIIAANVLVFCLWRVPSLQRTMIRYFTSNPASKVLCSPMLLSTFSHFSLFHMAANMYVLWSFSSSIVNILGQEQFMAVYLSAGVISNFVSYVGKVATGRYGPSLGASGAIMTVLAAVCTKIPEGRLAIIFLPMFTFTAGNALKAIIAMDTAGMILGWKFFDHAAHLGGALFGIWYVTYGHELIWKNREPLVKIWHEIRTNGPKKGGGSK
Assay: IQ-peptide substrate cleavage kinetics, PARLΔ77 in proteoliposomes
Format: biochemical
Details: for ranking of substrate cleavage: in proteoliposomes, by kcat, KM or kcat/KM
Description: To assess the activity of recombinant PARL toward known substrates in a lipid bilayer, full-length and β-truncated PARL were reconstituted in proteoliposomes (PLs) using Escherichia coli lipids that closely resemble the composition of the IMM ([31]). We determined that the EDANS/Dabcyl - FRET tags prevented incorporation of the substrates into PL; however, the substrate could still be cleaved since the active site is proposed to be near the lipid/water interface ([40], [41]) analogous to bacterial rhomboid proteases (Fig. 1). To calculate the specific activity of the protease, we quantified the fraction of PARL in the PLs with an outward facing active site using a membrane […] activity-based TAMRA-labeled fluorophosphonate probe ([42]). […] These values were used to calculate specific activity of the PARL protease. Next, we compared cleavage of three IQ-peptide substrates by reconstituted full-length mature PARLΔ55 and the β-truncated form, PARLΔ77 (Fig. 3, Tables S5 and S6).
Assays with FRET-PINK1^70–134 were conducted as previously described ([26]). For EDANS/Dabcyl 10-mer IQ peptides (PINK1, PGAM5, Smac/Diablo), lyophilized peptides were initially dissolved in DMSO to obtain a stock solution. The IQ peptide substrates in a concentration range of 0.1–70 μM were incubated with activity assay buffer (50 mM Tris-HCl pH 7.0, 150 mM NaCl, 10% glycerol, 0.1% DDM) in a 384-well black-bottomed plate at 37 °C for 30 min in a multiwell plate reader (SynergyMx, BioTek). For all concentrations of IQ peptide, the DMSO was kept constant at 5%. Following preincubation, PARL was added to a final concentration of 0.8 μM to initiate the cleavage reaction. Fluorescence readings were taken every 3 min over a 3 h time course at ƛex = 336 nm and ƛem = 490 nm. The initial velocity was determined from the fluorescence readings over the time course. For each substrate concentration, a no-enzyme control was subtracted to eliminate background fluorescence changes not related to substrate cleavage. Relative fluorescence units were converted to concentration (μM) by determining the maximum change in fluorescence observed for each substrate concentration when fully digested. GraphPad Prism software was used for Michaelis–Menten analysis of kinetic curves. All kinetic data were obtained using at least three biological replicates (different enzyme preparations) with technical duplicates for each experiment. For kinetic measurements in detergent with all three substrates, the activity assays were repeated at least five times. In addition, after each protease purification, the quality control of purified PARL was controlled by measuring its enzymatic activity. Minimum of three experimental replicates with two technical replicates were used for data analysis.
E. coli polar lipids (Avanti), 400 μg in chloroform, were dried under nitrogen stream in a glass tube to yield a thin film of lipid. The tube was incubated overnight in a desiccator to completely remove all traces of solvent. In total, 50 μl of water and DDM detergent was added to the lipid film for resuspension at room temperature for 10 min, followed by the addition of purified PARL (400 μg) in 50 mM Tris-HCl, pH 8.0, 150 mM NaCl, 20% glycerol, 0.1% DDM, to yield the final weight ratio of 1 PARL:1 lipid:2 detergent. The detergent was slowly removed by the addition of SM2 Biobeads (Bio-Rad) while stirring on ice for 6 h to allow for the generation of proteoliposomes (PL); the process was controlled by the regimen of Biobead addition. To purify the PL, 50%:20% sucrose density gradient ultracentrifugation was used. A TAMRA probe (ThermoFisher) was used to determine the orientation of reconstituted PARL, which specifically and covalently labels serine residues of an enzymatically active serine protease. In total, 2 μM of TAMRA probe was added to PL samples and incubated for 1 h, allowing the TAMRA probe to label only the outward-facing accessible active sites. […]

Row | Substance | ranking of substrate cleavage | turnover rate (PARLΔ77 in proteoliposomes)
1 | (DABCYL)-AVFLSAVAVG-Glu(EDANS) [IQ-PGAM5^20–29, internally quenched DABCYL/EDANS peptide substrate based on PGAM5 PARL cleavage site] | the preferred substrate with the lowest KM and the highest catalytic efficiency; also recorded: cleaved with the highest efficiency | 
2 | (DABCYL)-GVT LCAVPIA-Glu(EDANS) [IQ-Smac/Diablo^51–60, internally quenched DABCYL/EDANS peptide substrate based on Smac/Diablo PARL cleavage site] | the fastest | 1.0 ± 0.1 min⁻¹ and 1 min⁻¹
